Test results: patent US20240407315A1, “PLANT DISEASE […] METHOD, PLANT DISEASE […] DEVICE, AND PLANT DISEASE […] AGENT” (TOHOKU UNIVERSITY, priority 2021, published 2024)

Key:
[1] = system: Ca^2+ signals (calcium ion response); assay: Live GFP fluorescence imaging of Ca^2+ signals in GCaMP-expressing plants after gas exposure; assay type: in vivo, Arabidopsis thaliana; details: about 200 ppm or lower, 10 seconds
Description: An experiment was implemented, in which a plant was exposed to dinitrogen pentoxide to confirm induction of Ca^2+ signals (calcium ion response) as information of injuries similar to insect damages or physical injuries, using the plant disease resistance inducing device 10 illustrated in FIG. 1.
First, Ca^2+ signals that had appeared by exposing the whole body of Arabidopsis thaliana to dinitrogen pentoxide were observed. In the experiment, the concentration of dinitrogen pentoxide in the gas for the exposure was set to about 200 ppm or lower, and the exposure time was set to 10 seconds. For comparison, Ca^2+ signals that had appeared by exposing the whole body of Arabidopsis thaliana to dry air were also observed under the same condition. FIG. 2 presents states of Arabidopsis thaliana before the exposure, and states of the Ca^2+ signals 60 seconds after the termination of the exposure.
Next, Ca^2+ signals that had appeared by exposing one leaf of Arabidopsis thaliana to dinitrogen pentoxide were observed. In the experiment, only one leaf of Arabidopsis thaliana (leaf surrounded by dotted line in FIG. 3(a)) was exposed to dinitrogen pentoxide. The concentration of dinitrogen pentoxide in the gas for the exposure was set to about 200 ppm or lower, and the exposure time was set to 10 seconds.

[2] = system: PDF1.2, ORA59, PAD3, CYP71A12, NIT2, and WRKY26; assay: RNA sequencing (RNA-seq) gene expression analysis after gas exposure; assay type: in vivo, Arabidopsis thaliana
Experimental: A plant was exposed to dinitrogen pentoxide using the plant disease resistance inducing device 10 illustrated in FIG. 1, and a gene expression was analyzed by RNA sequencing (RNA-seq) and quantitative real-time PCR (qRT-PCR). In the RNA-seq analysis, Arabidopsis thaliana at 5 week of seeding was exposed to dinitrogen pentoxide once a day for 3 days. In each exposure, Arabidopsis thaliana was exposed to dinitrogen pentoxide from a distance of 5 cm for 20 seconds. A concentration of dinitrogen pentoxide in the gas for the exposure was set to about 200 ppm or lower. Twenty-four hours after the last exposure, leaves that had fully developed were collected, from which the total RNA was extracted, followed by RNA-seq analysis. For comparison, as a control plot, a leaf exposed to dry air under the same condition was also subjected to the RNA-seq analysis.
Genes with expression levels not less than twice as high as that of the control plot, induced by the dinitrogen pentoxide exposure, and genes with reduced expression levels not more than half as high as that of the control plot were extracted. As a result, 1304 genes with twice or more of induced expression levels, and 1209 genes with expression levels reduced to half or less were found.
Based on the result of the RNA-seq, six genes: PDF1.2, ORA59, PAD3, CYP71A12, NIT2, and WRKY26, were selected as candidate marker genes for the dinitrogen pentoxide exposure. Herein, PDF1.2 is an antimicrobial peptide gene and is often used as a marker gene for jasmonic acid and ethylene. ORA59 is a gene related to regulation of PDF1.2 expression. PAD3 is a gene related to biosynthesis of an antimicrobial substance camalexin, which is synthesized and induced by jasmonic acid. CYP71A12 is a gene related to a tryptophan metabolism at an upstream of PAD3. NIT2 is a gene related to biosynthesis of auxin that is another plant hormone derived from tryptophan. WRKY26 is a gene which, as is known, functionally overlaps with a transcription factor WRKY33 that regulates jasmonic acid signals.

[3] = system: PDF1.2, ORA59, PAD3, CYP71A12, NIT2, and WRKY26; assay: qRT-PCR time course of marker gene expression relative to ACT2 gene; assay type: in vivo, Arabidopsis thaliana; details: single 20 seconds exposure from 5 cm
Experimental: Subsequently, the expression of each of the selected genes was analyzed by qRT-PCR. In the qRT-PCR, Arabidopsis thaliana at 5 week of seeding was exposed to dinitrogen pentoxide from a distance of 5 cm for 20 seconds. The dinitrogen pentoxide exposure was conducted only once. The whole above-ground part was sampled 1, 3, 6, 12, 24, and 48 hours after the exposure, from which the total RNA was extracted and then subjected to qRT-PCR. Using ACT2 gene as a control for endogenous genes, an expression level of each gene was determined as a value relative to the ACT2 gene expression level (Relative expression to ACT2 gene).
For comparison, time-dependent changes in the expression levels of each gene in Arabidopsis thaliana exposed to dry air under the same condition were also determined, and the results are presented in FIG. 5. For the experiment, three independent individuals were used, and the mean values and standard deviations of the three individuals are presented in FIG. 5. The same experiment was conducted twice independently, and the same results were obtained.

[4] = system: cucumber mosaic virus (CMV) Macula lutea strain; assay: Suppression of viral growth: ELISA of virus coat protein in inoculated leaves; assay type: in vivo; details: Arabidopsis thaliana, 20 seconds once a day for 3 days, about 200 ppm or lower; inoculated 24 hours after last exposure; measured 2 days after inoculation
Description: A plant was exposed to dinitrogen pentoxide using the plant disease resistance inducing device 10 illustrated in FIG. 1, and subjected to an experiment for examining an effect of suppressing viral growth. In the experiment, Arabidopsis thaliana at 5 week of seeding was exposed to dinitrogen pentoxide once a day for 3 days. In each exposure, Arabidopsis thaliana was exposed to dinitrogen pentoxide from a distance of 5 cm for 20 seconds. A concentration of dinitrogen pentoxide in the gas for the exposure was set to about 200 ppm or lower. Twenty-four hours after the last exposure, leaves that had fully developed were inoculated with a cucumber mosaic virus (CMV) Macula lutea strain by a friction inoculation method. Two days after the CMV inoculation, viral loads in the inoculated leaves were quantitatively measured by Enzyme-Linked Immuno Sorbent Assay (ELISA) method using an anti-CMV coat protein antibody.
For comparison, virus loads of Arabidopsis thaliana exposed to dry air and inoculated with CMV under the same condition, and Arabidopsis thaliana exposed to dry air and not inoculated with CMV (Mock) under the same condition were also quantitatively measured, and the results are presented in FIG. 6. For the experiment, six independent individuals were used, and the mean values and standard deviations of the six individuals are presented in FIG. 6. […]

Arabidopsis thaliana = assay: Observation of leaf damage after gas exposure; assay type: in vivo; details: immediately after exposure and the next day
[5] = 20 seconds once a day for 3 days, about 200 ppm or lower, leaves 24 hours after last exposure

Row | Structure (SMILES) | time to activation of the Ca^2+ signals in the leaf directly exposed ([1]; one leaf exposed) | spread of Ca^2+ signals after exposure of one leaf ([1]; one leaf exposed, observed up to 6 minutes) | generation of Ca^2+ signals over the plant body ([1]; whole body exposed) | Ca^2+ signals after whole-body exposure ([1]; whole body exposed, observed 60 seconds after exposure, dry air gave no signals) | gene ontology analysis result ([2]; 20 seconds once a day for 3 days, about 200 ppm or lower) | number of genes with expression levels reduced to half or less vs control plot [2, 5] [genes] | number of genes with twice or more of induced expression levels vs control plot [2, 5] [genes] | At-N2O5-_TPM ([2]; gene CYP71A12, control 0.000000) [TPM] | At-N2O5-_TPM ([2]; gene NIT2, control 0.000000) [TPM] | At-N2O5-_TPM ([2]; gene ORA59, control 0.074135) [TPM] | At-N2O5-_TPM ([2]; gene PAD3, control 0.312642) [TPM] | At-N2O5-_TPM ([2]; gene WRKY26, control 0.035706) [TPM] | time after exposure from which ODR59 expression was induced [3] [h] | time after exposure from which PDF1.2 expression was induced [3] [h] | time of peak of transiently induced NIT2 expression [3] [h] | time until which high ODR59 expression level was maintained [3] [h] | time until which high PDF1.2 expression level was maintained [3] | CMV growth (accumulation of virus coat protein) compared to dry air exposure [4] | state of leaves after exposure (Arabidopsis thaliana)
1 | O=[N+]([O-])O[N+](=O)[O-] [dinitrogen pentoxide] | about 20 seconds | spread to all leaves in the whole body through sieve tubes | slowly generated over the whole body | Ca^2+ signals were observed | jasmonic acid signals were activated | 1209 | 1304 | 0.797 | 1.917 | 2.341 | 1.293 | 0.7565 | 1 | 6 | 12 | 48 | at least 48 hours | significantly suppressed | not to curl up but to grow without withering
2 | O=[O+][O-] [ozone, reference compound] |  |  |  |  |  |  |  |  |  |  |  |  |  |  |  |  |  |  | curl up immediately after the ozone exposure and wither the next day
